In PubChem BioAssay AID2202556 (NIEHS Division of Translational Toxicology (DTT)):
Records with an inconclusive call do not appear. Active and inactive are the calls of the source. How the calls were made is not given here.

Test system: in vivo alkaline comet assay, DNA damage, mouse/rat
Test: In vivo alkaline comet assay, summary data
From the text: The comet assay examines the ability of substances to cause DNA damage in cells from a variety of different tissues, such as liver, stomach, lung, or brain.
There are multiple forms of DNA damage, including DNA adducts (addition of a chemical structure to a DNA base), oxidative damage to DNA, and breaks in one or both strands. The comet assay can detect single and double strand breaks, DNA adducts, and DNA crosslinks, as well as breaks along the DNA strand that are produced during the normal processes of DNA repair or replication. Thus, the comet assay provides a snapshot of the balance between DNA damage and DNA repair at the time the tissue was harvested.
The DNA damage detected by the comet assay can resolve in several ways. The damage is most often rapidly and correctly repaired. Alternately, a cell that sustains DNA damage may die without passing the damage on to daughter cells following cell division. However, if the damage is not repaired or is repaired incorrectly, the daughter cells may inherit the damage as mutations or chromosome breaks, which are found in many human diseases including cancer. The outcome of the detected DNA damage is unknown.
The comet assay provides the advantage of being able to look at chemical effects on DNA in tissues other than bone marrow, which is the main source of cells used to examine chemical-induced chromosome damage and mutation induction in animals (see Micronucleus Assay).
Animals (rats or mice) are treated with a test substance once or multiple times, and DNA damage is usually evaluated 3-6 hours after the final treatment.
The animal tissue is rapidly minced in a buffer solution, combined with agarose, and layered onto slides. The slides are placed in a solution that removes the cellular and nuclear membranes and cellular proteins, leaving behind the nuclear DNA. The slides are then incubated in an alkaline solution (pH > 13) to convert alkali-labile sites into strand breaks and allow the DNA to unwind. Next, the slides are subjected to an electrical field in a tank filled with a buffer solution. Broken DNA, having a negative charge, migrates out of the area of the nucleus toward the positively charged anode. This forms a comet-like shape with the nucleus at the "head" and the migrated DNA as the "tail." All steps of the method are performed using ice-cold solutions and buffers. After this process, the DNA is stained with a fluorescent dye and cells are analyzed using Comet Assay IV Imaging Software.
For each cell, DNA migration is analyzed using an automated software system attached to a microscope. The extent of damage is characterized as the percent tail DNA (how much DNA migrated to the tail, compared to the total DNA as a percentage). At least 100 cells per sample are evaluated; current guidelines for the assay recommend analysis of at least 150 cells per sample. The data is statistically analyzed to determine if there is a significant increase in percent tail DNA in chemical-exposed animals compared to the controls (animals not exposed).
Dose-related responses, as well as significant dose groups, are considered during the evaluation of the data. For a positive test, both a dose response and at least one significant dose group are required. If only one of these measures is present, the test is considered to be equivocal. The absence of either condition results in a negative test. The final conclusions for comet assays are determined by considering the results of statistical analyses, reproducibility of any observed effects, and the magnitude of the effects. Ultimately, both biological and statistical significance are considered when reaching a final conclusion.
For more details, please refer to the original protocol: https://ntp.niehs.nih.gov/research/apptoxres/genetic and publication: https://www.ncbi.nlm.nih.gov/pubmed/26212309

| SMILES | outcome |
| --- | --- |
| CCNC(=O)CC(C)=O | active; positive |
| O=C([O-])[O-].O=C([O-])[O-].[OH-].[OH-].[OH-].[OH-].[OH-].[OH-].[Zn+2].[Zn+2].[Zn+2].[Zn+2].[Zn+2] | active |
| C=CC(=O)NC(C)(C)C | active; positive |
| OC(CCl)CCl | active; positive |
| CNNC | active |
| Cc1ccc(N(C)C)cc1 | active; negative |
| CCOS(C)(=O)=O | active |
| C=CC1(C)OC(=O)N(c2cc(Cl)cc(Cl)c2)C1=O (centres undefined) | active; positive |
| ClCC1CO1 (centres undefined) | active; positive |
| [O]=[Sb][O][Sb]=[O] | active; positive |
| Nc1nc(=O)n([C@@H]2CS[C@H](CO)O2)cc1F | active; positive |
| CNC(=O)Oc1cccc2ccccc12 | active |
| NC(=O)NO | active; positive |
| c1ccoc1 | active; positive |
| CC(=O)CC(C)=O | active; positive |
| NC(=O)CC(N)=O | active; positive |
| CC[C@]1(O)C[C@H]2CN(CCc3c([nH]c4ccccc34)[C@@](C(=O)OC)(c3cc4c(cc3OC)N(C=O)[C@H]3[C@@](O)(C(=O)OC)[C@H](OC(C)=O)[C@]5(CC)C=CCN6CC[C@]43[C@@H]65)C2)C1 | active |
| C=CC(N)=O | active; positive |
| CC(C)c1ccccc1 | active; positive |
